Data taken from patent EP0326134A1, “4-Amino-2,3-disubstituted-6,7-dihydro-5H-1-pyridine derivatives, process for their preparation and medicaments containing them” (NAUCHNO-ISSLEDOVATELSKY INSTITUT TEKHNOLOGII I BEZOPASNOSTI …, priority 1988, dated 1989).
Where two headings read alike, the source gives them in different places.

Assays:
[1] = Acute toxicity, single intraperitoneal injection, probit analysis (LD50); format: in vivo, Mäusen; details: mice, i.p.
Text: Ihre akute Toxizität wurde an Mäusen (einmalige intraperitoneale Injektion) nach der Methode der Probit-Analyse nach Zichtfield, Wilcoxon, t949 untersucht. In Tabelle 2 sind die Parameter der akuten Toxizität (LDso) angegeben, die eine mäßige Toxizität der erfindungsgemäßen Verbindungen belegen.

[2] = system: Zahl der Krämpfe; assay: Writhing test (intraperitoneal acetic acid); format: in vivo, Mäusen; details: male mice
Text: Die analgetische Wirkung der erfindungsgemäßen Verbindungen wurde an männlichen Mäusen anhand des "Krampf"-Tests (Writhing-Tests) unter intraperitonealer Injizierung von Essigsäure und des Hot-plate-Tests untersucht. Im ersten Falle wurde die analgetische Wirkung der Verbindungen anhand der prozentualen Verringerung der Zahl der Krämpfe ermittelt. Beim zweiten Test wurde die Schwelle der Schmerzempfindlichkeit (Ablecken der Pfoten) bestimmt. Die stärkste analgetische Wirkung der erfindungsgemäßen Verbindungen zeigte sich beim "Krampf"-Test. Dabei übertrafen die Salze der bicyclischen Basen Amyridin, aber nicht alle erfindungsgemäßen Verbindungen waren schwächer als Morphin (s. Tabelle 4).

[3] = system: Calciumchlorid-Arrhythmie-Modells; assay: Calcium chloride arrhythmia model (250 mg/kg): ventricular fibrillation, survival; format: in vivo, Ratten; details: rats, calcium chloride 250 mg/kg
Text: (§1) Die antiarrhythmische Wirkung der erfindungsgemäßen Verbindungen wurde in zwei Versuchsserien untersucht, und zwar an isolierten Präparaten des rechten Vorhofs von Kaninchen und mit Hilfe des Calciumchlorid-Arrhythmie-Modells an Ratten. In den Versuchen an den isolierten Präparaten des rechten Vorhofs wurden mit Hilfe von Mikroelektroden die Dauer des AP sowie der Refraktärzeit (R) und die maximale Hemmung (e) und der Parameter (e/R) untersucht, durch den die Anfälligkeit des Myokards gegenüber der Entstehung von Arrhythmien gekennzeichnet wird. In den Versuchen an Ratten wurden diesen Calciumchlorid in einer Dosierung von 250 mg/kg injiziert. Registriert wurden das Vorliegen von Kammerflimmern und die Lebensdauer der Tiere. Sämtliche erfindungsgemäßen Verbindungen üben eine mäßige antiarrhythmische Wirkung aus. Sie steigern die Refraktärzeit des Muskels und des AP um 35 bis 145 % und verringern gleichzeitig die Anfälligkeit des Myokards, ausgedrückt durch den Parameter e/R um 10 bis 80 % (s. Tabelle 4). In bezug auf diese Wirkung waren die Salze der bicyclischen Basen wirksamer als Amyridin. Bezüglich des Vermögens, die Tiere vor Kammerflimmern und vor dem Tod nach Verabreichung von 250 mg/kg Calciumchlorid zu schützen, waren diese Verbindungen ebenfalls am stärksten wirksam. Bei Verwendung des Calciumchlorid-Arrhythmie-Modells waren viele erfindungsgemäßen Verbindungen stärker wirksam als das klassische Antiarrhythmikum Chinidin (s. M.D. Ma s kovskij, Lekarstvennye sredstva, Bd. 1, S. 401, Moskau, Medicina, 1984).

[4] = system: Wirkung von Hexenal; assay: Influence on the effect of Hexenal; format: in vivo, Mäusen; details: mice
[5] = system: durch Skopolamin hervorgerufene Amnesie; assay: Dark avoidance assay (passive avoidance), scopolamine-induced amnesia; format: in vivo, Mäusen; details: for Einfluß auf das Gedächtnis: Zahl der Tiere in %, bei denen die Skopolaminwirkung aufgehoben wurde: mice, compound s.c. 5 min before learning, Skopolamin i.p. 30 min before
Experimental: Die Mäuse wurden dabei in den hellen Abschnitt der Kammer gegeben, wonach die Latenzzeit für den Übertritt in die dunkle Kammer, in der die Tiere einem Stromschlag von 0,5 mA ausgesetzt waren, registriert wurde. Danach erhöhte sich die Latenzzeit für den Übertritt in den dunklen Abschnitt und verringerte sich die Aufenthaltsdauer. 30 Minuten vor dem Versuch wurden den Mäusen i.p. […] Gedächtnisstörungen hervorrufendes Skopolamin als Cholinblocker injiziert. Die erfindungsgemäßen Verbindungen wurden s.c. 5 Minuten vor dem Lernvorgang injiziert. Das Skopolamin verkürzt die Latenzzeit für den Übertritt in die dunkle Kammer, die erfindungsgemäßen Verbindungen stellen jedoch die Latenzzeitwerte wie bei der Kontrollgruppe wieder her oder bedingen ein geringfügiges Überschreiten dieser Werte (siehe Tabelle 2). Gleichzeitig wird die Aufenthaltsdauer der Tiere im dunklen Abschnitt der Kammer auf 36 bis 45 Hundertstel des Ausgangswerts verringert.

[6] = system: Orientierungsaktivität; assay: Influence on orientation activity; format: in vivo, Mäusen; details: mice
Text: Von Interesse ist der Einfluß der erfindungsgemäßen Verbindungen auf das ZNS und das Verhalten der Tiere. Alle Verbindungen zeigen eine Kombination von stimulierenden und sedativen Eigenschaften und bei höheren Dosen auch eine m-cholinomimetische Wirkung, wobei Tremor, Speichelfluß und Diarrhoe ausgelöst werden.

[7] = system: isolierten Präparaten des rechten Vorhofs von Kaninchen; assay: Antiarrhythmic effect on isolated right atrium preparations (microelectrodes: AP duration, refractory period R, e/R); details: isolated right atrium of rabbit; for Antiarrhythmische Wirkung: Verlängerung d. Refraktärzeit (R), in %: microelectrodes
Text: as §1

[8] = system: Nerven-Muskel-Präparat von Mäusen (n.peroneus-m.extensor digitorum longus); assay: Neuromuscular transmission in isolated nerve-muscle preparation (EPP, minEPP); details: for Stimulierung der Nerven-Muskelübertragung, in % der Amplitude: EPP: EPP = Endplattenpotential
Text: Der Einfluß der Stoffe auf die Nerven-Muskei-Übertragung wurde am isolierten Nerven-Muskel-Präparat von Mäusen (n.peroneus-m.extensor digitorum longus) (s. Bhattacharyya B. et al. "Neuromuscular blocking action of two hemicholinium-3 analogs" Europ. J. Pharmac. 146, 155-165 /1988/) untersucht, das von Lilly-Lösung perfundiert wurde, durch die man ein Gemisch von 02 und C02 leitete. […] Das Endplattenpotential (EPP) und das Endplattenminiaturpotential (minEPP) wurden mit Hilfe eines Magnetografen aufgezeichnet und danach mit dem Computer ausgewertet. Ermittelt wurden die Frequenz (f), die Amplitude (A) und die Dauer (t) der minEPP und der EPP (s. Tabelle 2).

[9] = Side effects and CNS/behaviour: tremor (TD50), sedative and m-cholinomimetic effects; format: in vivo; details: for TD50 (Tremor) / TD50: toxic dose causing tremor in 50 % of the animals
Text: Von Interesse ist der Einfluß der erfindungsgemäßen Verbindungen auf das ZNS und das Verhalten der Tiere.

[10] = molecular target: T1, Acetylcholinesterase menschlicher Erythrozyten (Homo sapiens, UniProt P22303); assay: Acetylcholinesterase inhibition, spectrophotometric; format: biochemical
T1 construct: Acetylcholin-esteraseinhi-bierung bei menschlichen Erythrozyten; from tissue; host or cells: human erythrocytes
T1 sequence (P22303 other isoform, or with tags, fused parts or gaps): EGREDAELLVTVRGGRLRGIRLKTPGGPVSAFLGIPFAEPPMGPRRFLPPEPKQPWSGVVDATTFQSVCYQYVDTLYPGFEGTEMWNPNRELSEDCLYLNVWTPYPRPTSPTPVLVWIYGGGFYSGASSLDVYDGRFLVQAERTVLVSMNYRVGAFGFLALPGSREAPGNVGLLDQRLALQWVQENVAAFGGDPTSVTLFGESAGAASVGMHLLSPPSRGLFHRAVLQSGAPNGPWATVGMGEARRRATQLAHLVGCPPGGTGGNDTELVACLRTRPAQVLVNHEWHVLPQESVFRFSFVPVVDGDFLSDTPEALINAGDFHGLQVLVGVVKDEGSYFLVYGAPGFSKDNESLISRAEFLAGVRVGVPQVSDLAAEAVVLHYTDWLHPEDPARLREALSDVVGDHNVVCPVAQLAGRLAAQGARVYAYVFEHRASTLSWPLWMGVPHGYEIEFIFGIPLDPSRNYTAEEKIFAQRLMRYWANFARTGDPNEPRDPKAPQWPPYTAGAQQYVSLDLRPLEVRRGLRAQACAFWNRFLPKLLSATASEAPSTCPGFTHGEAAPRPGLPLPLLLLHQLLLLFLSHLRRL
Text: Untersucht wurden die Wirkmechanismen der erfindungsgemäßen Verbindungen: • 1. Die Wirkung auf Acetylcholinesterase menschlicher Erythrozyten auf spektrofotometrischem Wege. • 2.

[11] = ED50 = dose blocking the effect of Skopolamin in 50 % of the animals (passive avoidance, mice)
[12] = Acetylcholinesteraseinhibierung bei menschlichen Erythrozyten IK, (Mol), human erythrocyte enzyme

Molecule | LD50 [1] | Analgetische Wirkung: Abnahme d. Zahl der "Krämpfe" bei Mäusen, in % [2] | Antiarrhythmische Wirkung: Verlängerung d. Lebensdauer von Ratten an Hand des CaCl2-Arrhythmie-Modells, in % [3] | Änderung der Dauer der Seitenlage, in %: Hexenal 60 mg/kg [4] | Einfluß auf das Gedächtnis: Zahl der Tiere in %, bei denen die Skopolaminwirkung aufgehoben wurde [5] | Änderung der Orientierungsaktivität, in % [6] | Antiarrhythmische Wirkung: Verlängerung d. Refraktärzeit (R), in % [7] | Antiarrhythmische Wirkung: Abnahme d. Parameters θ/R, in % ([7]; parameter marks susceptibility of the myocardium to arrhythmia) | Stimulierung der Nerven-Muskelübertragung, in % der Amplitude: EPP [8] | Stimulierung der Nerven-Muskelübertragung, in % der Amplitude: minEPP [8] | Verhältnis TD50 zu ED50 [9, 11] | TD50 (Tremor) [9] | Ki [10, 12] | TD50 ([9]; in vivo) | LD50 ([1]; mouse, in vivo, ip, read-out: LD50) | Ki ([10]; read-out: Acetylcholinesteraseinhibierung bei menschlichen Erythrozyten IK, (Mol), human erythrocyte enzyme) | antiamnestische Wirkung ([5]; in words, compared with Amyridin) | selectivity ratio ([9]; in vivo, ED50 = dose blocking the effect of Skopolamin in 50 % of the animals (passive avoidance, mice), read-out: Verhältnis TD50 zu ED50)
4-Amino-2,3-dimethyl-6,7-dihydro-5H-1-pyrindinsalicylat [Verbindung 8] | 17 mg/kg | 70% | 190% | 0% | 70% | 0% | 100% | 58% | 40% | 75% | 6 | 8 mg/kg | – | – | – | – | – | –
Cc1nc2c(c(N)c1C)CCC2 [Verbindung 2] | 15 mg/kg | 70% | 160% | +35% | 75% | -15% | 130% | – | 45% | 85% | 12,5 | 5 mg/kg | 0.048 µM | – | – | – | – | –
Cc1nc2c(c(N)c1C)CCC2 [Verbindung 3] | 17 mg/kg | 90% | 190% | 0% | 80% | -8% | 115% | – | 55% | 110% | 20 | 7 mg/kg | 0.18 µM | – | – | – | – | –
Cc1nc2c(c(N)c1C)CCC2 [Verbindung 4] | 15 mg/kg | 80% | 180% | 0% | 70% | 0% | 90% | – | 40% | 85% | 11 | 5,5 mg/kg | 0.24 µM | – | – | – | – | –
Cc1nc2c(c(N)c1C)CCC2 [Verbindung 5] | 25 mg/kg | 90% | 130% | 0% | 60% | -10% | 110% | – | 40% | 90% | 13 | 9 mg/kg | 0.66 µM | – | – | – | – | –
Cc1nc2c(c(N)c1C)CCC2 [Verbindung 6] | 35 mg/kg | 70% | 130% | +20% | 60% | -20% | 100% | – | 35% | 80% | 10 | – | 0.4 µM | 10 mg/kg | – | – | – | –
Cc1nc2c(c(N)c1C)CCC2 [Verbindung 7] | 20 mg/kg | 60% | 150% | +32% | 80% | -25% | 110% | – | 52% | 95% | 9 | 9 mg/kg | 0.366 µM | – | – | – | – | –
Cc1nc2c(c(N)c1C)CCC2 [Verbindung 17] | 24 mg/kg | – | – | – | 72% | – | – | – | 43% | 75% | 7,1 | 10 mg/kg | 0.39 µM | – | – | – | – | –
Cc1nc2c(c(N)c1C)CCC2 [Verbindung 18] | 16 mg/kg | – | – | – | 70% | – | – | – | 45% | 80% | 6 | 9 mg/kg | 0.145 µM | – | – | – | – | –
CCc1c(C)nc2c(c1N)CCC2 [Verbindung 22] | 32 mg/kg | – | – | – | 70% | – | – | – | 25% | 60% | 4 | 12 mg/kg | – | – | – | – | – | –
Cc1nc2c(c(N)c1-c1ccccc1)CCC2 [Verbindung 32] | – | – | – | – | 50% | – | – | – | 20% | 45% | – | – | – | 10 mg/kg | 18 mg/kg | 50 µM | ausgenommen | 2.6
